These are literature values, as cited in patent US11717481B2, “Reduction of flake-like aggregation in nanoparticulate active agent compositions” (Alkermes Pharma Ireland Limited, priority 2009, dated 2023).

As for `Cc1cnc(NC(=O)C2=C(O)c3ccccc3S(=O)(=O)N2C)s1` [Meloxicam, 4-hydroxy-2-methyl-N-(5-methyl-2-thiazolyl)-2H-1,2-benzothiazine-3-carboxamide-1,1-dioxide], the solubility in water entry is reported as “Practically insoluble”.
